Reference: publication PMC6586154 (Clinical Pharmacology in Drug Development, 2018)

What was measured:
[1] = Ertugliflozin-sitagliptin drug-drug interaction study, plasma pharmacokinetics; assay type: in vivo, human; conditions: for AUC(0-inf): po
[2] = Ertugliflozin-simvastatin drug-drug interaction study, plasma pharmacokinetics
[3] = Ertugliflozin-metformin drug-drug interaction study, plasma pharmacokinetics
[4] = Ertugliflozin-glimepiride drug-drug interaction study, plasma pharmacokinetics; assay type: in vivo, human; conditions: for GMR (90% CI) Cmax, analyte Glimepiride: Test Ertugliflozin + Glimepiride / Reference Glimepiride; for Tmax / AUC(0-t) / Cmax / half-life: oral
[5] = Safety and tolerability across all 4 DDI studies; assay type: in vivo, human; conditions: single dose ertugliflozin 15 mg alone or in combination with sitagliptin, metformin, glimepiride, or simvastatin; healthy subjects
OCT2 [6] = conditions: cited from earlier work
OCT1 = conditions: cited from earlier work
OATP1B3 = conditions: cited from earlier work
OAT1 = conditions: cited from earlier work
[7] = Ertugliflozin plasma PK summarized across all 4 DDI studies; assay type: in vivo; conditions: human, oral, 15 mg
[8] = cited from earlier work
OATP2B1 = conditions: cited from earlier work
P‐glycoprotein = conditions: at clinically relevant concentrations; cited from earlier work
OAT3 [9] = conditions: in vitro studies; cited from earlier work
OATP1B1 = conditions: cited from earlier work
OCT2 [10] = conditions: in vitro studies; cited from earlier work
OAT3 [11] = conditions: cited from earlier work
[12] = test system: breast cancer resistance protein; conditions: at clinically relevant concentrations; cited from earlier work
[13] = simvastatin 40 mg coadministered with ertugliflozin 15 mg vs alone
[14] = both, human, plasma, oral, 15 mg

SMILES: N[C@@H](CC(=O)N1CCn2c(nnc2C(F)(F)F)C1)Cc1cc(F)c(F)cc1F [Sitagliptin, reference compound]
- GMR (90% CI) Cmax, analyte Sitagliptin ([1]; Test Ertugliflozin + Sitagliptin / Reference Sitagliptin): 101.7 (91.7, 112.8) %
- half-life ([1]; both, human, plasma, oral, 100 mg): 11 ± 2.89 h
- AUC(0-t) ([1]; human, plasma, oral, 100 mg): 6.95 µM·h
- Cmax ([1]; human, plasma, oral, 100 mg): 814 nM
- AUC(0-inf) ([1]; human, plasma, 100 mg): 7.02 µM·h

SMILES: CCC(C)(C)C(=O)O[C@H]1C[C@@H](C)C=C2C=C[C@H](C)[C@H](CC[C@@H]3C[C@@H](O)CC(=O)O3)[C@H]21 [Simvastatin, reference compound]
- Increase in geometric mean AUCinf of simvastatin [2, 13]: 24%
- Increase in geometric mean Cmax of simvastatin [2, 13]: 19%

SMILES: CN(C)C(=N)N=C(N)N [Metformin, reference compound]
- GMR (90% CI) Cmax, analyte Metformin ([3]; Test Ertugliflozin + Metformin / Reference Metformin): 94.0 (82.9, 106.6) %
- Metformin Tmax ([3]; plasma, Metformin 1000 mg alone (N = 18), median (range)): 2.00 (0.50–4.00) h

SMILES: CCC(C)(C)C(=O)O[C@H]1C[C@@H](C)C=C2C=C[C@H](C)[C@H](CC[C@@H](O)C[C@@H](O)CC(=O)O)[C@H]21 [Simvastatin Acid, simvastatin acid]
- Increase in geometric mean AUCinf of simvastatin acid [2, 13]: 30%
- Increase in geometric mean Cmax of simvastatin acid [2, 13]: 16%

SMILES: CCC1=C(C)CN(C(=O)NCCc2ccc(S(=O)(=O)NC(=O)N[C@H]3CC[C@H](C)CC3)cc2)C1=O [Glimepiride]
- GMR (90% CI) Cmax, analyte Glimepiride [4]: 97.4 (71.1, 133.5) %
- GMR (90% CI) Cmax, analyte Glimepiride ([4]; listed as glimepiride): 97.4%
- Tmax ([4]; both, human, plasma): 1 to 12 h
- AUC(0-t) ([4]; both, human, plasma, 1 mg): 218 ng·h/mL
- Cmax ([4]; both, human, plasma, 1 mg): 34.4 ng/mL
- half-life ([4]; both, human, plasma, 1 mg): 5.89 ± 2.79 h
- AUC(0-inf) ([4]; both, human, plasma, po, 1 mg): 249 ng·h/mL
- Intrasubject variability for Cmax of glimepiride ([4]; glimepiride 1 mg alone or with ertugliflozin 15 mg): 53.5%

SMILES: CCOc1ccc(Cc2cc([C@]34OC[C@](CO)(O3)[C@@H](O)[C@H](O)[C@H]4O)ccc2Cl)cc1 [Ertugliflozin]
- Tolerability [5]: well tolerated
- Substrate of OCT2 uptake transporter (OCT2 [6]): not a substrate
- GMR (90% CI) Cmax, analyte Ertugliflozin ([3]; Test Ertugliflozin + Metformin / Reference Ertugliflozin): 97.1 (88.8, 106.3) %
- AUC(0-t) [3, 14]: 1380 ng·h/mL
- Cmax [3, 14]: 279 ng/mL
- Tmax [3, 14]: 1.02 h
- half-life [3, 14]: 11.8 ± 2.34 h
- Substrate of OCT1 uptake transporter (OCT1): not a substrate
- GMR (90% CI) Cmax, analyte Ertugliflozin ([2]; Test Ertugliflozin + Simvastatin / Reference Ertugliflozin): 105.2 (98.3, 112.5) %
- AUC(0-t) ([2]; both, human, in vivo, 15 mg): 1380 ng·h/mL
- Cmax ([2]; both, human, in vivo, 15 mg): 273 ng/mL
- half-life ([2]; both, human, in vivo, 15 mg): 12.3 ± 3.07 h
- Substrate of OATP1B3 uptake transporter (OATP1B3): not a substrate
- Substrate of OAT1 uptake transporter (OAT1): not a substrate
- Tmax [7]: 1 to 3 h
- half-life [7]: 10.6 to 12.6 h
- GMR (90% CI) Cmax, analyte Ertugliflozin ([1]; Test Ertugliflozin + Sitagliptin / Reference Ertugliflozin): 98.2 (91.2, 105.7) %
- AUC(0-t) ([1]; human, plasma, oral, 15 mg): 1430 ng·h/mL
- Cmax ([1]; human, plasma, oral, 15 mg): 270 ng/mL
- Tmax ([1]; human, plasma, oral, 15 mg): 1 h
- AUC(0-inf) ([1]; human, plasma, 15 mg): 1460 ng·h/mL
- Absolute (oral) bioavailability [8]: approximately 100%
- Renal excretion of unchanged ertugliflozin ([8]; human, in vivo): 1.5 % of the administered dose
- Contribution of glucuronidation to metabolic clearance ([8]; major metabolic pathway): 86%
- Contribution of oxidative metabolism ([8]; minor pathway): 12%
- Substrate of OATP2B1 uptake transporter (OATP2B1): not a substrate
- GMR (90% CI) Cmax, analyte Ertugliflozin ([4]; Test Ertugliflozin + Glimepiride / Reference Ertugliflozin): 98.2 (92.2, 104.6) %
- AUC(0-t) ([4]; both, human, plasma, 15 mg): 1230 ng·h/mL
- Cmax ([4]; both, human, plasma, 15 mg): 146 ng/mL
- Tmax ([4]; both, human, plasma, 15 mg): 2 h
- half-life ([4]; both, human, plasma, 15 mg): 10.6 ± 2.44 h
- Substrate of P‐glycoprotein efflux transporter (P‐glycoprotein): substrate
- Inhibition of OAT3 transporter (OAT3 [9]): weak inhibitor
- Substrate of OATP1B1 uptake transporter (OATP1B1): not a substrate
- Inhibition of OCT2 transporter (OCT2 [10]): weak inhibitor
- Substrate of OAT3 uptake transporter (OAT3 [11]): not a substrate
- Substrate of breast cancer resistance protein efflux transporter [12]: substrate
